According to PubChem BioAssay (NCI):
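Exposure lasted 48 hours, with cells grown in 96-well plates and compounds tested at five concentrations. GI50 = concentration required for 50% inhibition of growth. At the TGI there is no net growth.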

Tests used:
Test in all cases: NCI tumour cell line growth inhibition, 48 h
KM12 colon = tested on: KM12 colon
OVCAR-4 ovarian = tested on: OVCAR-4 ovarian
HCT-116 colon = tested on: HCT-116 colon
IGROV1 ovarian = tested on: IGROV1 ovarian
CCRF-CEM leukemia = tested on: CCRF-CEM leukemia
BT-549 breast = tested on: BT-549 breast
M14 melanoma = tested on: M14 melanoma
ACHN renal = tested on: ACHN renal
HL-60(TB) leukemia = tested on: HL-60(TB) leukemia
SK-MEL-28 melanoma = tested on: SK-MEL-28 melanoma

C=C1C(=O)OC2C1CC(OC(C)=O)/C(C)=C/CCC1(C)OC21 (stereo not given)
TGI (KM12 colon): > 100 µM
TGI (OVCAR-4 ovarian): > 100 µM
TGI (HCT-116 colon): > 100 µM
TGI (IGROV1 ovarian): > 100 µM
TGI (CCRF-CEM leukemia): > 100 µM
TGI (BT-549 breast): > 100 µM
TGI (M14 melanoma): > 100 µM
TGI (ACHN renal): > 100 µM
TGI (HL-60(TB) leukemia): > 100 µM
TGI (SK-MEL-28 melanoma): > 100 µM

NCCCOc1cc2ccccc2cc1C(=O)NCCCOc1cc2ccccc2cc1C(=O)Nc1ccc(Cl)cc1O
GI50 (KM12 colon): 288 nM
TGI (KM12 colon): 0.983 µM
GI50 (OVCAR-4 ovarian): 0.247 µM
TGI (OVCAR-4 ovarian): 0.737 µM
GI50 (HCT-116 colon): 190 nM
TGI (HCT-116 colon): 0.374 µM
GI50 (IGROV1 ovarian): 1.9 µM
TGI (IGROV1 ovarian): 4.42 µM
GI50 (CCRF-CEM leukemia): 334 nM
TGI (CCRF-CEM leukemia): 11.5 µM
GI50 (BT-549 breast): 1.85 µM
TGI (BT-549 breast): 3.6 µM
GI50 (M14 melanoma): 881 nM
TGI (M14 melanoma): 2.55 µM
GI50 (ACHN renal): 0.387 µM
TGI (ACHN renal): 1.44 µM
GI50 (HL-60(TB) leukemia): 512 nM
TGI (HL-60(TB) leukemia): 2.2 µM
GI50 (SK-MEL-28 melanoma): 0.289 µM
TGI (SK-MEL-28 melanoma): 0.728 µM

O=C(Nc1ccc(Cl)cc1)Nc1nccs1
GI50 (KM12 colon): 491 nM
TGI (KM12 colon): 19.4 µM
GI50 (OVCAR-4 ovarian): 8.38 µM
TGI (OVCAR-4 ovarian): > 100 µM
GI50 (HCT-116 colon): 490 nM
TGI (HCT-116 colon): 52.8 µM
GI50 (IGROV1 ovarian): 1.26 µM
TGI (IGROV1 ovarian): > 100 µM
GI50 (CCRF-CEM leukemia): 1930 nM
TGI (CCRF-CEM leukemia): 62 µM
GI50 (BT-549 breast): 8.68 µM
TGI (BT-549 breast): 57.9 µM
GI50 (M14 melanoma): 543 nM
TGI (M14 melanoma): 27.5 µM
GI50 (ACHN renal): 2.25 µM
TGI (ACHN renal): 43 µM
GI50 (HL-60(TB) leukemia): 2300 nM
TGI (HL-60(TB) leukemia): 10.2 µM
GI50 (SK-MEL-28 melanoma): 13.8 µM
TGI (SK-MEL-28 melanoma): > 100 µM

COc1ccc(-c2nn(-c3cccc(Cl)c3)cc2-c2nc(N)[nH]c(=O)c2C#N)cc1
GI50 (KM12 colon): 3840 nM
TGI (KM12 colon): 15.2 µM
GI50 (OVCAR-4 ovarian): 7.71 µM
TGI (OVCAR-4 ovarian): 61.9 µM
GI50 (HCT-116 colon): 4350 nM
TGI (HCT-116 colon): 16.2 µM
GI50 (IGROV1 ovarian): 3.01 µM
TGI (IGROV1 ovarian): 18.1 µM
GI50 (CCRF-CEM leukemia): 3650 nM
TGI (CCRF-CEM leukemia): 33.8 µM
GI50 (BT-549 breast): 3.54 µM
TGI (BT-549 breast): 22.4 µM
GI50 (M14 melanoma): 3250 nM
TGI (M14 melanoma): 34 µM
GI50 (ACHN renal): 9.92 µM
TGI (ACHN renal): > 100 µM
GI50 (HL-60(TB) leukemia): 3960 nM
TGI (HL-60(TB) leukemia): 14.2 µM
GI50 (SK-MEL-28 melanoma): 4.98 µM
TGI (SK-MEL-28 melanoma): 27.9 µM

CNC(C)[C@H]1CCC2C3CC=C4C(=O)[C@@H](NC(=O)C=C(C)C)CC[C@]4(C)C3CC[C@@]21C (stereo not given in full)
GI50 (KM12 colon): 2460 nM
TGI (KM12 colon): 10.3 µM
GI50 (OVCAR-4 ovarian): 2.22 µM
TGI (OVCAR-4 ovarian): 17.9 µM
GI50 (HCT-116 colon): 1090 nM
TGI (HCT-116 colon): 2.53 µM
GI50 (IGROV1 ovarian): 3.19 µM
TGI (IGROV1 ovarian): 11.8 µM
GI50 (CCRF-CEM leukemia): 1770 nM
TGI (CCRF-CEM leukemia): 7.8 µM
GI50 (BT-549 breast): 2.34 µM
TGI (BT-549 breast): 8.42 µM
GI50 (M14 melanoma): 1720 nM
TGI (M14 melanoma): 3.45 µM
GI50 (ACHN renal): 3.29 µM
TGI (ACHN renal): 12.6 µM
GI50 (HL-60(TB) leukemia): 1830 nM
TGI (HL-60(TB) leukemia): 4.75 µM
GI50 (SK-MEL-28 melanoma): 1.69 µM
TGI (SK-MEL-28 melanoma): 3.3 µM

C=C(C)[C@@H]1CC[C@]2(C)[C@H](CC[C@@H]3[C@@H]([C@@](C)(O)CCC=C(C)C)CC[C@]32C)[C@@]1(C)CCC(=O)O
GI50 (KM12 colon): 16300 nM
TGI (KM12 colon): 32.4 µM
GI50 (OVCAR-4 ovarian): 16.3 µM
TGI (OVCAR-4 ovarian): 39 µM
GI50 (HCT-116 colon): 15400 nM
TGI (HCT-116 colon): 29.8 µM
GI50 (IGROV1 ovarian): 18.7 µM
TGI (IGROV1 ovarian): 38.4 µM
GI50 (CCRF-CEM leukemia): 18000 nM
TGI (CCRF-CEM leukemia): 48.2 µM
GI50 (BT-549 breast): 16.8 µM
TGI (BT-549 breast): 35.8 µM
GI50 (M14 melanoma): 16400 nM
TGI (M14 melanoma): 36.1 µM
GI50 (ACHN renal): 21.7 µM
TGI (ACHN renal): 54.3 µM
GI50 (HL-60(TB) leukemia): 20600 nM
TGI (HL-60(TB) leukemia): 54.5 µM
GI50 (SK-MEL-28 melanoma): 16.3 µM
TGI (SK-MEL-28 melanoma): 30.3 µM

Cc1ccc2occ/c(=N\Nc3ccccc3)c2c1
TGI (KM12 colon): 78.5 µM
TGI (OVCAR-4 ovarian): > 100 µM
TGI (HCT-116 colon): > 100 µM
TGI (IGROV1 ovarian): > 100 µM
TGI (CCRF-CEM leukemia): > 100 µM
TGI (BT-549 breast): > 100 µM
TGI (M14 melanoma): > 100 µM
TGI (ACHN renal): > 100 µM
TGI (HL-60(TB) leukemia): > 100 µM
TGI (SK-MEL-28 melanoma): > 100 µM

O=C(NNc1cnccn1)c1nc2cc(F)ccc2n2cccc12
GI50 (KM12 colon): 509 nM
TGI (KM12 colon): > 100 µM
GI50 (OVCAR-4 ovarian): 0.211 µM
TGI (OVCAR-4 ovarian): 0.964 µM
GI50 (HCT-116 colon): 460 nM
TGI (HCT-116 colon): > 100 µM
GI50 (IGROV1 ovarian): 0.503 µM
TGI (IGROV1 ovarian): > 100 µM
GI50 (CCRF-CEM leukemia): 211 nM
TGI (CCRF-CEM leukemia): > 100 µM
GI50 (BT-549 breast): 2.24 µM
TGI (BT-549 breast): > 62.8 µM
GI50 (M14 melanoma): 340 nM
TGI (M14 melanoma): 14.5 µM
GI50 (ACHN renal): 0.362 µM
TGI (ACHN renal): > 100 µM
GI50 (HL-60(TB) leukemia): 346 nM
TGI (HL-60(TB) leukemia): 2.82 µM
GI50 (SK-MEL-28 melanoma): 1.08 µM
TGI (SK-MEL-28 melanoma): > 100 µM

CCOC(=O)C1=C(N)Oc2c(sc3c(C)cccc23)C1c1ccc(F)cc1 (stereo not given)
GI50 (KM12 colon): 464 nM
TGI (KM12 colon): 13.6 µM
GI50 (OVCAR-4 ovarian): 3.33 µM
TGI (OVCAR-4 ovarian): 18.3 µM
GI50 (HCT-116 colon): 429 nM
TGI (HCT-116 colon): 11.8 µM
GI50 (IGROV1 ovarian): 0.475 µM
TGI (IGROV1 ovarian): 13.5 µM
GI50 (CCRF-CEM leukemia): 559 nM
TGI (CCRF-CEM leukemia): 21.6 µM
GI50 (BT-549 breast): 2.07 µM
TGI (BT-549 breast): 12.6 µM
GI50 (M14 melanoma): 486 nM
TGI (M14 melanoma): 14.5 µM
GI50 (ACHN renal): 0.692 µM
TGI (ACHN renal): 15.9 µM
GI50 (HL-60(TB) leukemia): 374 nM
TGI (HL-60(TB) leukemia): 4.62 µM
GI50 (SK-MEL-28 melanoma): 8.71 µM
TGI (SK-MEL-28 melanoma): 22.1 µM

CCOC(=O)c1sc(NC(=O)COc2cccc(/C=C3\CCc4cc(OC)ccc4C3=O)c2)nc1C
GI50 (KM12 colon): 2300 nM
TGI (KM12 colon): 5.12 µM
GI50 (OVCAR-4 ovarian): 9.07 µM
TGI (OVCAR-4 ovarian): > 100 µM
GI50 (HCT-116 colon): 3180 nM
TGI (HCT-116 colon): > 100 µM
GI50 (IGROV1 ovarian): 3.02 µM
TGI (IGROV1 ovarian): 21 µM
GI50 (CCRF-CEM leukemia): 1260 nM
TGI (CCRF-CEM leukemia): 4.3 µM
GI50 (BT-549 breast): 3.26 µM
TGI (BT-549 breast): > 100 µM
GI50 (M14 melanoma): 7950 nM
TGI (M14 melanoma): > 100 µM
GI50 (ACHN renal): 6 µM
TGI (ACHN renal): > 100 µM
GI50 (HL-60(TB) leukemia): 1940 nM
TGI (HL-60(TB) leukemia): 4.92 µM
GI50 (SK-MEL-28 melanoma): 18.2 µM
TGI (SK-MEL-28 melanoma): > 100 µM

Oc1ccc(Oc2cnc3ccccc3n2)cc1
GI50 (KM12 colon): 45000 nM
TGI (KM12 colon): > 100 µM
GI50 (OVCAR-4 ovarian): 60.3 µM
TGI (OVCAR-4 ovarian): > 100 µM
GI50 (HCT-116 colon): > 100000 nM
TGI (HCT-116 colon): > 100 µM
GI50 (IGROV1 ovarian): > 100 µM
TGI (IGROV1 ovarian): > 100 µM
GI50 (CCRF-CEM leukemia): 24200 nM
TGI (CCRF-CEM leukemia): > 100 µM
GI50 (BT-549 breast): 12.3 µM
TGI (BT-549 breast): 57.5 µM
GI50 (M14 melanoma): > 100000 nM
TGI (M14 melanoma): > 100 µM
GI50 (ACHN renal): 76.6 µM
TGI (ACHN renal): > 100 µM
GI50 (HL-60(TB) leukemia): 26300 nM
TGI (HL-60(TB) leukemia): > 100 µM
GI50 (SK-MEL-28 melanoma): > 100 µM
TGI (SK-MEL-28 melanoma): > 100 µM

CC(Cl)CN1c2ccccc2Sc2ccc(Cl)cc21 (stereo not given)
TGI (KM12 colon): > 10 µM
TGI (OVCAR-4 ovarian): > 10 µM
TGI (HCT-116 colon): > 10 µM
TGI (IGROV1 ovarian): > 10 µM
TGI (CCRF-CEM leukemia): > 10 µM
TGI (BT-549 breast): > 10 µM
TGI (M14 melanoma): > 10 µM
TGI (ACHN renal): > 10 µM
TGI (HL-60(TB) leukemia): > 10 µM
TGI (SK-MEL-28 melanoma): > 10 µM
